Laboratory results taken from patent US11834698B2, “Process for determining enzyme activity in a cell by activity-based reporter gene technology (ABRGT)” (INDIAN INSTITUTE OF SCIENCE EDUCATION AND RESEARCH, priority 2018, dated 2023).

Legend:
cathepsin B GFPspark = target: T1, cathepsin B GFPspark (Homo sapiens, UniProt P07858); experiment: AbRGT FRET imaging / acceptor photobleaching, cathepsin B GFPspark in HEK-293 cells; format: cell-based; details: HEK-293, inhibitor 50 μM 1 h before probe 1 labelling, STS 4 h
T1 construct: GFPspark (C); host or cells: HEK-293
Method: FIG. 20 depicts confocal images of HEK-293 cells in GFP, FRET and Rh channel Cathepsin B GFPspark transfected HEK-293 cells were treated with STS (1 μM) for 4 h and labelled (a) (i) with or (a) (iv) without probe 1. Cells were pre-treated with (a) (ii) Z-VAD-FMK (50 μM) or (a) (iii) E-64 (50 μM) inhibitor 1 h before the probe 1 labelling. (b) Quantification of the change in GFPS fluorescence intensity after rhodamine photobleaching in both unbleached control region and rhodamine bleached region (ROI), using acceptor photo-bleaching method. Error bar represents the s.e.m for n=10 cells (*P<0.00001). Scale bar, 10 μm. a.u., arbitrary units.
(§1) Plasmids and transient transfection: GFPspark tagged plasmids; caspase-3 GFPspark tag (Cat: HG10050-ACG), caspase-7 GFPspark tag (HG10049-ACG), caspase-8 GFPspark (HG10078-ACG), caspase-9 GFPspark (HG11151-ACG) and cathepsin B GFPspark (HG10483-ACG) were procured from Sino Biological. For transfection, cells were seeded in a 6-well plate at a density of 0.4 million cells/well. At 60-70% confluency, cells were transiently transfected for 24 h at 37° C. with 1 μg of the GFPspark tagged plasmid DNA construct mixed with 5 μL of Lipofectamine 2000 (Invitrogen) according to the manufacturer's instructions. 24 h post-transfection, cells were visualized under the GFP filter for GFPspark expression under fluorescence microscope at 10× magnification.
(§2) Labelling of active caspases in apoptotic cells with FABP: After 24 h of transfection, cells were treated with STS (1 μM) drug or TRAIL (1 μg/ml) for apoptotic induction and incubated for 2, 4, 6 and 8 h at 37° C. in a humidified atmosphere of 5% CO2/95% air. Cells were gently scraped off from the surface at the end of apoptotic induction and centrifuged at 3000 rpm for 5 min. The cell pellet was resuspended in 300 μL of fresh DMEM containing 1 μM of probe for probe 2 and incubated for additional 2 h at 37° C. in a humidified atmosphere of 5% CO2. Cells were again centrifuged at 3000 rpm for 5 mins, and the supernatant was decanted. Cells were washed with 1×PBS, thrice finally resuspended in 20 μL of 1×PBS. The cell suspension was put on a slide, and a coverslip was placed over it. It was left for air drying. Slides were then imaged for GFP, FRET and rhodamine fluorescence signals under confocal microscopy.
Inhibitor assay: Cells were pre-treated with 50 μM of Z-VAD-FMK or Q-VD-OPh or E-64 inhibitor 1 h before probe 1 labelling and incubated for 1 h at 37° C. in a humidified atmosphere of 5% CO2. Cells were gently scraped off from the surface at the end of inhibitor treatment and centrifuged at 3000 rpm for 5 min Cells were then labelled with the probe 1 as described in the previous section.
Fluorescence imaging studies, FRET procedure: Images were collected on Zeiss LSM710 confocal microscope with 25 mW argon laser using Zen10 software. The laser was tuned to lines at 488 nm (excitation laser for GFPspark) and 561 nm (excitation laser for rhodamine) Cells were examined with a 40× 1.3 NA Zeiss oil immersion objective and 2.4× zoom. Images were collected in the three channels; GFP channel, argon laser tuned at 488 nm with 2% laser intensity and fluorescence emission was collected in emission range of 490-550 nm; rhodamine channel, argon laser tuned to 561 nm laser with 2% laser intensity and fluorescence emission was collected in range 550-650 nm and FRET channel with excitation laser of GFPSPARK channel and emission range of rhodamine channel. […]

caspase-3/7 = experiment: Substrate-based reporter assay, CFP-DEVDR-YFP cleavage, live cell FRET
Method: FIGS. 8A and 8B depict the time course of cleavage for CFP-DEVDR-YFP plasmid. Time is relative to the first frame taken after 8 h of STS treatment. […] The percentage rise in the CFP/YFP intensity ratio was 47%. Rise in CFP/YFP intensity ratio is an indirect measure of caspase-3/7 activation.
To rule out that the obtained FRET signal in [FIG. 2b (i)] is not because of random physical interaction between GFPspark and rhodamine dye, MCF-7 cells were transfected with a plasmid encoding for enhanced green fluorescent protein (EGFP). EGFP transfected MCF-7 cells were treated with STS (1 μM) for 4 h, labelled with the probe 1. […] In-gel fluorescence assay was also performed to validate the multiple off-targets labelling of probe 1 which has also been shown in the previous reports. […] The calculated FRET efficiency for (n=15 cells) is 35±1%. […] Caspase-3 activation was also monitored using probe 2 as fABP which is different from probe 1 in terms of peptide recognition sequence; DEVD in exchange for VAD as DEVD peptide sequence is more specific for caspases as compared to VAD. Probe 2 yielded a similar pattern of fluorescence signal in GFPspark, FRET and Rh channel as that of probe 1 [FIG. 7(a)]. The calculated FRET efficiency was 35% [FIG. 7(b)]. […] Acceptor photo-bleaching method was done to confirm the FRET signal, and the calculated FRET efficiency was 32±2% [FIG. 10 (a & b)].

[1] = tested on: cleaved caspase-3 p17 fragment; experiment: Western blot of cleaved caspase-3 p17 fragment in HeLa cells; format: cell-based; details: STS 1 μM, after 12 h, 18 and 24 h
Method: FIG. 9 depicts a western blot analysis of cleaved caspase-3 p17 fragment after 18 and 24 h of STS (1 μM) treatment in HeLa cells. Lysate loading was done in triplicates. Double headed arrow representing 3 lanes with the same sample.
To rule out that the obtained FRET signal in [FIG. 2b (i)] is not because of random physical interaction between GFPspark and rhodamine dye, MCF-7 cells were transfected with a plasmid encoding for enhanced green fluorescent protein (EGFP). EGFP transfected MCF-7 cells were treated with STS (1 μM) for 4 h, labelled with the probe 1. […] In-gel fluorescence assay was also performed to validate the multiple off-targets labelling of probe 1 which has also been shown in the previous reports. […] The calculated FRET efficiency for (n=15 cells) is 35±1%. […] Caspase-3 activation was also monitored using probe 2 as fABP which is different from probe 1 in terms of peptide recognition sequence; DEVD in exchange for VAD as DEVD peptide sequence is more specific for caspases as compared to VAD. Probe 2 yielded a similar pattern of fluorescence signal in GFPspark, FRET and Rh channel as that of probe 1 [FIG. 7(a)]. The calculated FRET efficiency was 35% [FIG. 7(b)]. […] To confirm the reported results, the cleaved caspase-3 p17 fragment in immunoblotting was also detected by using active caspase-3 p17 antibody after […] of STS (1 μM) treatment [FIG. 9]. […]

caspase-3 GFPspark = target: T2, caspase-3 GFPspark (Homo sapiens, UniProt P42574); experiment: AbRGT FRET imaging / acceptor photobleaching, caspase-3 GFPspark in MCF-7 cells; format: cell-based; design: host or cells: MCF-7, HeLa, HEK-293; details: MCF-7, STS 1 μM 4 h
T2 sequence (P42574 29-175 limits assumed): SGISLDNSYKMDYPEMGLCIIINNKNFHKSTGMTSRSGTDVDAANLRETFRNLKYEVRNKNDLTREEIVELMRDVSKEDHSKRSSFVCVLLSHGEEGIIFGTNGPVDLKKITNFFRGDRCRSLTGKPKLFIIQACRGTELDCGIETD
T2 sequence (P42574 176-277 limits assumed): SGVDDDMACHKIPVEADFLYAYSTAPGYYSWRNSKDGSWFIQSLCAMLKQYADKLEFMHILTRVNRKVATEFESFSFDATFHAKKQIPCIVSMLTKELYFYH
Method: FIG. 2 depicts (a) a schematic representation of AbRGT in determining the specific activation of caspase-3 GFPspark tagged enzyme by FRET effect utilizing Rh-VAD-FMK (probe 1). (b) The fluorescence signal was collected in GFP, FRET and Rhodamine (Rh) channels. MCF-7 cells transfected with caspase-3 GFPspark treated with (i) 1 μM STS for 4 h or (ii) 1 μg/ml TRAIL for 5 h and then labelled with probe 1. (iii) Un-transfected MCF-7 cells were treated with 1 μM STS for 4 h and then labelled with the probe 1. MCF-7 cells transfected with enhanced green fluorescent protein (EGFP) plasmid treated (iv) with 1 μM STS or (v) without STS for 4 h and then labelled with probe 1, scale bar, […]. (c) FRET validation between GFPspark and rhodamine fluorophore using the acceptor photobleaching method. Images for GFP and rhodamine fluorescence signals were collected in GFP and FRET channels pre- and post-bleaching of rhodamine signals. (d) Quantification of change in GFP fluorescence intensity after rhodamine photo-bleaching in both unbleached control region and rhodamine bleached region, region of interest (ROI), area under the white square. Error bar represents the s.e.m for n=15 cells (*P<0.00001). Scale bar, 10 μm. a.u., arbitrary units.
FIGS. 6A and 6B depict time dependent activation of caspase-3 GFPspark in MCF-7 cells upon STS (1 μM) induction. MCF-7 cells transfected with 2 μg of caspase-3 GFPspark plasmid and treated with 1 μM of STS for 2, 6, and 8 h. Cells were then labelled with the probe 1 for an additional 2 h. […] FRET validation between GFPspark and rhodamine fluorophore using the acceptor photobleaching method for the MCF-7 cells with STS induction for 2, 6 and 8 h. I=intensity (a.u.), arbitrary units. The calculated FRET efficiency for 2, 6 and 8 h are 38, 43, and 36% respectively.
FIGS. 7A and 7B depict applying AbRGT for specific detection of active caspase-3 GFPspark using the Rh-DEVD-FMK (probe 2). Caspase-3 GFPspark (2 μg) overexpressing MCF-7 cells were treated with 1 μM of STS for 4 h and labelled with the probe 2 (1 μM). […] The rise in GFPspark intensity after rhodamine photobleaching in the background is insignificant as compared to the ROI, i.e., 68 a.u., with a calculated FRET efficiency of 35%.
FIG. 12 depicts confocal images of MCF-7 cells in GFP, FRET and Rh channel. Caspase-3 GFPspark transfected MCF-7 cells were treated with STS for 4 h and labelled (a) with or (b) without probe 1. Cells were pre-treated with (c) Z-VAD-FMK (50 μM) and (d) Q-VD-OPh (50 μM) pan-caspase inhibitors 3 h before the probe labelling.
as §1
as §2, with “Cells were washed with 1×PBS, thrice finally resuspended in 20 μL of 1×PBS. The cell suspension was put on a slide, and a coverslip was placed over it. It was left for air drying. Slides were then imaged for GFP, FRET and rhodamine fluorescence signals under confocal microscopy.” left out

Molecule: CC(C)C[C@H](NC(=O)[C@H]1O[C@@H]1C(=O)O)C(=O)NCCCCN=C(N)N [E-64]
- effect of inhibitor on FRET signal (cathepsin B GFPspark): abolished
- signal in Rh channel in presence of inhibitor (cathepsin B GFPspark): sharp, intense punctate labelling was observed

Molecule: CN[C@@H]1C[C@H]2O[C@@](C)([C@@H]1OC)n1c3ccccc3c3c4c(c5c6ccccc6n2c5c31)C(=O)NC4 [STS, staurosporine]
- percentage rise in the CFP/YFP intensity ratio (caspase-3/7; CFP-DEVDR-YFP plasmid, from 8 h of STS treatment): 47%
- time of caspase-3/7 activation after treatment (caspase-3/7; STS 1 μM, live cell imaging): 10 to 12 h
- cleaved caspase-3 p17 fragment in immunoblotting [1]: detected

Molecule: Rh-DEVD-FMK [probe 2]
- rise in GFP intensity after rhodamine photobleaching in ROI (caspase-3 GFPspark; probe 1 μM): 68 a.u.
- calculated FRET efficiency (caspase-3 GFPspark; probe 1 μM 2 h, acceptor photobleaching): 35%
